Drawing on patent US6596711B1, “(Aminopropyl)methylphosphinic acids” (AstraZeneca AB, priority 1999, dated 2003), this text covers melting point for 1 compound.

A word on the melting point: it is the temperature, or range, at which the solid turns liquid.

On to `CP(=O)(O)CC(F)CN` (stereo not shown), for which the melting point was 78 to 84 °C.
